Results as given in ChEMBL document CHEMBL1955766, “Structure guided development of novel thymidine mimetics targeting Pseudomonas aeruginosa thymidylate kinase: from hit to lead generation” (J Med Chem, 2012).
≈ marks a conversion by molar mass, not a printed value.

System: Mycobacterium tuberculosis variant bovis
Test: Antibacterial activity against Mycobacterium bovis
Assay type: functional

Cc1cn([C@@H]2C[C@H](O)[C@@H](CNC(=S)Nc3ccc(Cl)c(Cl)c3)O2)c(=O)[nH]c1=O
MIC: 25 µg/mL (≈ 56.1 µM)
